Reference: patent US20260285850A1, “SUBSTITUTED OXAZOLIDINONES AND IMIDAZOLINONES AS HERBICIDES” (FMC CORPORATION, priority 2023, published 2026)

Assays:
Assay type in all cases: in vivo
[1] = tested on: blackgrass (Alopecurus myosuroides); test: Test A preemergence soil spray, visual injury rating 0-100; settings: 10 days, 0 = no effect, 100 = complete control
How it was run: (§1)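 Scale 0–100 (no effect to complete control), visual, versus untreated controls, read 10 days after application. Application: preemergence directed spray onto seeded loam–sand soil, or postemergence to young plants; formulation in non-phytotoxic solvent with surfactant.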

[2] = tested on: ryegrass, Italian (italian ryegrass, Lolium multiflorum); test: as above; settings: 10 days, 0 = no effect, 100 = complete control
How it was run: as §1

[3] = tested on: kochia (Bassia scoparia); test: as above; settings: 10 days, 0 = no effect, 100 = complete control
How it was run: as §1

[4] = tested on: ragweed (common ragweed, Ambrosia artemisiifolia); test: as above; settings: 10 days, 0 = no effect, 100 = complete control
How it was run: as §1

[5] = tested on: green foxtail (Setaria viridis); test: as above; settings: 10 days, 0 = no effect, 100 = complete control
How it was run: as §1

[6] = tested on: wheat (Triticum aestivum); test: as above; settings: 10 days, 0 = no effect, 100 = complete control
How it was run: as §1

[7] = tested on: soybean (Glycine max); test: as above; settings: 10 days, 0 = no effect, 100 = complete control
How it was run: as §1

[8] = tested on: barnyardgrass (Echinochloa crus-galli); test: as above; settings: 10 days, 0 = no effect, 100 = complete control
How it was run: as §1

[9] = tested on: oat, wild (wild oat, Avena fatua); test: as above; settings: 10 days, 0 = no effect, 100 = complete control
How it was run: as §1

[10] = tested on: palmer (palmer amaranth, palmer pigweed, Amaranthus palmeri); test: as above; settings: 10 days, 0 = no effect, 100 = complete control
How it was run: as §1

[11] = tested on: corn (Zea mays); test: as above; settings: 10 days, 0 = no effect, 100 = complete control
How it was run: as §1

[12] = tested on: sedge, umbrella (small-flower umbrella sedge, Cyperus difformis); test: Test B flooded paddy test, visual plant response rating 0-100; settings: 250 g ai/ha, Flood, applied to paddy water, evaluated after 13 days
How it was run: (§2)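 2-leaf plants; flood 3 cm over soil; compound dosed into paddy water; depth kept constant; greenhouse 13 d; visual scoring vs controls. Dash = no result.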

[13] = tested on: rice (Oryza sativa); test: as above; settings: 250 g ai/ha, Flood, applied to paddy water, evaluated after 13 days
How it was run: as §2

[14] = tested on: ducksalad (Heteranthera limosa); test: as above; settings: 250 g ai/ha, Flood, applied to paddy water, evaluated after 13 days
How it was run: as §2

[15] = tested on: barnyardgrass (Echinochloa crusgalli); test: as above; settings: 250 g ai/ha, Flood, applied to paddy water, evaluated after 13 days
How it was run: as §2

[16] = tested on: blackgrass (Alopecurus myosuroides); test: Test A postemergence application, visual injury rating 0-100; settings: 10 days
How it was run: as §1

[17] = tested on: ryegrass, Italian (italian ryegrass, Lolium multiflorum); test: as above; settings: 10 days
How it was run: as §1

[18] = tested on: kochia (Bassia scoparia); test: as above; settings: 10 days
How it was run: as §1

[19] = tested on: ragweed (common ragweed, Ambrosia artemisiifolia); test: as above; settings: 10 days
How it was run: as §1

[20] = tested on: green foxtail (Setaria viridis); test: as above; settings: 10 days
How it was run: as §1

[21] = tested on: wheat (Triticum aestivum); test: as above; settings: 10 days
How it was run: as §1

[22] = tested on: galium (catchweed bedstraw, Galium aparine); test: as above; settings: 10 days
How it was run: as §1

[23] = tested on: soybean (Glycine max); test: as above; settings: 10 days
How it was run: as §1

[24] = tested on: barnyardgrass (Echinochloa crus-galli); test: as above; settings: 10 days
How it was run: as §1

[25] = tested on: oat, wild (wild oat, Avena fatua); test: as above; settings: 10 days
How it was run: as §1

[26] = tested on: palmer (palmer amaranth, palmer pigweed, Amaranthus palmeri); test: as above; settings: 10 days
How it was run: as §1

[27] = tested on: corn (Zea mays); test: as above; settings: 10 days
How it was run: as §1

[28] = tested on: horseweed (Erigeron canadensis); test: as above; settings: 10 days
How it was run: as §1

[29] = 31 g ai/ha, postemergence, 0 = no effect, 100 = complete control
[30] = Postemergence, 125 g ai/ha, 0 is no effect, 100 is complete control

## COC(=O)C1CC(NC(=O)C2(C)CN(c3cc(F)cc(F)c3)C(=O)O2)CO1 (stereo not shown) [Compound 29]
[1]; 31 g ai/ha
  Blackgrass plant response rating (0-100): 0
[1]; 125 g ai/ha
  Blackgrass plant response rating (0 to 100 scale): 50
[2]; 31 g ai/ha
  Ryegrass, Italian plant response rating (0-100): 0
[2]; 125 g ai/ha
  Ryegrass, Italian plant response rating (0 to 100 scale): 30
[3]; 31 g ai/ha
  Kochia plant response rating (0-100): 0
[3]; 125 g ai/ha
  Kochia plant response rating (0 to 100 scale): 0
[4]; 31 g ai/ha
  Ragweed plant response rating (0-100): 0
[4]; 125 g ai/ha
  Ragweed plant response rating (0 to 100 scale): 0
[5]; 31 g ai/ha
  Foxtail, Green plant response rating (0-100): 0
[5]; 125 g ai/ha
  Foxtail, Green plant response rating (0 to 100 scale): 0
[6]; 31 g ai/ha
  Wheat plant response rating (0-100): 0
[6]; 125 g ai/ha
  Wheat plant response rating (0 to 100 scale): 80
[7]; 31 g ai/ha
  Soybean plant response rating (0-100): 0
[7]; 125 g ai/ha
  Soybean plant response rating (0 to 100 scale): 0
[8]; 31 g ai/ha
  Barnyardgrass plant response rating (0-100): 0
[8]; 125 g ai/ha
  Barnyardgrass plant response rating (0 to 100 scale): 20
[9]; 31 g ai/ha
  Oat, Wild plant response rating (0-100): 0
[9]; 125 g ai/ha
  Oat, Wild plant response rating (0 to 100 scale): 60
[10]; 31 g ai/ha
  Amaranth, Palmer plant response rating (0-100): 0
[10]; 125 g ai/ha
  Amaranth, Palmer plant response rating (0 to 100 scale): 0
[11]; 31 g ai/ha
  Corn plant response rating (0-100): 0
[11]; 125 g ai/ha
  Corn plant response rating (0 to 100 scale): 0
[12]
  Plant response rating, Sedge, Umbrella (0 to 100 scale, 0 is no effect and 100 is complete control): 0
[13]
  Plant response rating, Rice (0 to 100 scale, 0 is no effect and 100 is complete control): 0
[14]
  Plant response rating, Ducksalad (0 to 100 scale, 0 is no effect and 100 is complete control): 0
[15]
  Plant response rating, Barnyardgrass (0 to 100 scale, 0 is no effect and 100 is complete control): 0
[16]; [29]
  Blackgrass plant response rating (0-100): 90
[16]; [30]
  Blackgrass plant response rating (0 to 100 scale): 90
[17]; [29]
  Ryegrass, Italian plant response rating (0-100): 50
[17]; [30]
  Ryegrass, Italian plant response rating (0 to 100 scale): 90
[18]; [29]
  Kochia plant response rating (0-100): 20
[18]; [30]
  Kochia plant response rating (0 to 100 scale): 40
[19]; [29]
  Ragweed plant response rating (0-100): 30
[19]; [30]
  Ragweed plant response rating (0 to 100 scale): 30
[20]; [29]
  Foxtail, Green plant response rating (0-100): 0
[20]; [30]
  Foxtail, Green plant response rating (0 to 100 scale): 80
[21]; [29]
  Wheat plant response rating (0-100): 80
[21]; [30]
  Wheat plant response rating (0 to 100 scale): 90
[22]; [29]
  Galium plant response rating (0-100): 50
[22]; [30]
  Galium plant response rating (0 to 100 scale): 80
[23]; [29]
  Soybean plant response rating (0-100): 0
[23]; [30]
  Soybean plant response rating (0 to 100 scale): 50
[24]; [29]
  Barnyardgrass plant response rating (0-100): 10
[24]; [30]
  Barnyardgrass plant response rating (0 to 100 scale): 80
[25]; [29]
  Oat, Wild plant response rating (0-100): 80
[25]; [30]
  Oat, Wild plant response rating (0 to 100 scale): 90
[26]; [29]
  Amaranth, Palmer plant response rating (0-100): 0
[26]; [30]
  Amaranth, Palmer / Pigweed, Palmer plant response rating (0 to 100 scale): 60
[27]; [29]
  Corn plant response rating (0-100): 0
[27]; [30]
  Corn plant response rating (0 to 100 scale): 70
[28]; [29]
  Horseweed plant response rating (0-100): 0
[28]; [30]
  Horseweed plant response rating (0 to 100 scale): 20
